{"source": "patent US20250213587A1", "about": "“ITK INHIBITORS FOR INCREASING TH1 CELL ACTIVITY” (Corvus Pharmaceuticals, Inc., priority 2022, published 2025)", "key": {"ZAP-70": {"molecular_target": "ZAP-70 (Homo sapiens, UniProt P43403)", "sequence (P43403 whole entry)": "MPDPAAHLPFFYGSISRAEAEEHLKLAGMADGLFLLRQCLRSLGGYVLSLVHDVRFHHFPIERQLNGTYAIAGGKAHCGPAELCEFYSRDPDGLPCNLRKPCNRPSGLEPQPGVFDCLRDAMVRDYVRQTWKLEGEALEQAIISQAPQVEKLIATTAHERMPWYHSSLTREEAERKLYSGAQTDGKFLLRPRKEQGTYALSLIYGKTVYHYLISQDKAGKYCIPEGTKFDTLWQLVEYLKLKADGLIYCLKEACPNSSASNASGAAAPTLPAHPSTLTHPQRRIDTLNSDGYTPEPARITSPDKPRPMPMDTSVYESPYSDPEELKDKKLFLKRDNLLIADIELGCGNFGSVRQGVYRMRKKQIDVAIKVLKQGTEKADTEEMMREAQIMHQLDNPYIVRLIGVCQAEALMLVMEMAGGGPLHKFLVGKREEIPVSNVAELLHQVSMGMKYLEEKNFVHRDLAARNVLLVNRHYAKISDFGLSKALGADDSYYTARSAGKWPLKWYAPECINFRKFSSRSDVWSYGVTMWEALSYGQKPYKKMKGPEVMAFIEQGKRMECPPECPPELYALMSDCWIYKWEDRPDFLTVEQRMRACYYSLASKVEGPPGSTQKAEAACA", "test": "Human kinome profiling at 1.0 μM, ZAP-70", "assay_type": "biochemical", "conditions": "read-out: percent control, ZAP-70"}, "[1]": {"test_system": "peripheral T cell lymphoma", "test": "Anti-tumor activity in human clinical trials (T cell lymphoma)", "assay_type": "in vivo", "description": "Each lane represents a patient with the length indicating time on treatment. A treatment cycle is 21 days and then the cycle is repeated until the patient experiences tumor progression or unacceptable toxicity."}, "ITK [2]": {"molecular_target": "T1, ITK (Canis lupus familiaris, UniProt A0A8I3MMK2)", "T1 construct": "from tissue; host or cells: PBMC of dosed dogs", "T1 sequence (A0A8I3MMK2 1-620)": "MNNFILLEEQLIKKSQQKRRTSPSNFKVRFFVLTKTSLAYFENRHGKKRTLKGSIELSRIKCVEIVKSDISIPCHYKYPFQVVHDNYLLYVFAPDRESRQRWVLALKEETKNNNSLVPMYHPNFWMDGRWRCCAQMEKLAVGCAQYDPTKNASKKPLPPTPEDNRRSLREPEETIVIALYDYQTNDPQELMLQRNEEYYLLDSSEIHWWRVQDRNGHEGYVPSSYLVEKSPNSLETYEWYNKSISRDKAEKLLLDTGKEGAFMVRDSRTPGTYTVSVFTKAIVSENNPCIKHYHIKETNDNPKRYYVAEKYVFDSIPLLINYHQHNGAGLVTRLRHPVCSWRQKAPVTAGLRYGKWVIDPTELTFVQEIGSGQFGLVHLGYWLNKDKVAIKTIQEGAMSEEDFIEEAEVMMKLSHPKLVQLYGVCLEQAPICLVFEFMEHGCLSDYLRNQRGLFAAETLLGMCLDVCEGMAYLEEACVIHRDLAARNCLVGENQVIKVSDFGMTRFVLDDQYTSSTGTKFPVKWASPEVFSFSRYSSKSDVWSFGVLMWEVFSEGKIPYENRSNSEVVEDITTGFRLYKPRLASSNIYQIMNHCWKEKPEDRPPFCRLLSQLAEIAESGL", "test": "ITK occupancy in dog PBMC", "assay_type": "in vivo", "conditions": "po, single 5 mg/kg PO", "procedure": "The active site occupancy of ITK by a covalent inhibitor was measured using an irreversibly bound biotinylated probe in an immuno-electrochemiluminescence assay. The binding of an inhibitor and the probe to the ATP binding site is mutually exclusive. In lysates of immune cell lines or immune cells collected from treated animals, the biotinylated probe reacts with free (uninhibited) ITK and is subsequently captured on a streptavidin-coated surface and quantified. The free ITK in each sample is normalized by dividing it by either the lysate protein concentration (BCA protein assay, Pierce) or cell count of the sample. Normalized free ITK values are generated for samples collected prior to and after treatment from which occupancy was calculated using equation 7. Single cell suspensions of Jurkat cells, mouse splenocytes, dog PBMC or purified normal human T cells were prepared. Cell lysis was performed using a buffer containing CelLytic M (Sigma Aldrich) supplemented with protease and phosphatase inhibitors (Pierce). The cell pellet resuspended in lysis buffer was incubated at room temperature for 30 minutes when the lysate was clarified by centrifugation at 20,000×g for 5 minutes at 4° C. […] Read buffer (Mesoscale Diagnostics) diluted two-fold with water was dispensed into the wells of the plate which was read immediately using an MESO Quickplex SQ 120 instrument."}, "ITK [3]": {"molecular_target": "T2, ITK (Homo sapiens, UniProt Q08881)", "T2 sequence (Q08881 1-620)": "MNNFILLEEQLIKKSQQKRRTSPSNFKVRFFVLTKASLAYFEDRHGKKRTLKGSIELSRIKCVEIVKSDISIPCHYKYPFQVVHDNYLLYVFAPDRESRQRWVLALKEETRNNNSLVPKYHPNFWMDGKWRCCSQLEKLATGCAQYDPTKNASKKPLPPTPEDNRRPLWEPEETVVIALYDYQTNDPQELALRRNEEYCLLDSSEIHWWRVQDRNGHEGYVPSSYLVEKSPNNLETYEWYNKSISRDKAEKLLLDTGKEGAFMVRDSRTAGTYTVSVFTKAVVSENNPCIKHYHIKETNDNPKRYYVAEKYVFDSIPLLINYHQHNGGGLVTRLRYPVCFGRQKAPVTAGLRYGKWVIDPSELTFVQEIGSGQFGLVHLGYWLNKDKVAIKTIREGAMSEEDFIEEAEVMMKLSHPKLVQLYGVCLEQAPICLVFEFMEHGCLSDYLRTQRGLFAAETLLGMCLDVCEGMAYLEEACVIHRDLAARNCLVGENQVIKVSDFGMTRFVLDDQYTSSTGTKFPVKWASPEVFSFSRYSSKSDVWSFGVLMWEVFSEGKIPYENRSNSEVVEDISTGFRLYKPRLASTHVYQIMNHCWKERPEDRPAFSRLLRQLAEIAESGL", "test": "ITK occupancy in patients at steady state", "assay_type": "in vivo"}, "ITK Cys-442": {"molecular_target": "T3, ITK Cys-442 (Homo sapiens, UniProt Q08881)", "T3 construct": "The protein construct comprised amino acids 2 to 620 of ITK; purchased Cama Bioscience (so in the source)", "test": "Mass spectrometry of chymotryptic digest of inhibited ITK", "assay_type": "binding", "conditions": "LC MS/MS, 5-fold molar excess", "procedure": "ITK was obtained as a glutathione S transferase (GST) fusion protein from Cama Bioscience (Product Number 08 081, Lot 13CBS 0356K). The protein was supplied at 586 μg/mL (5.9 μM ITK) in 50 mM TRIS, 150 mM NaCl, 0.05% Brij35, 1 mM dithiothreitol, and 10% glycerol at pH 7.5. The protein construct comprised amino acids 2 to 620 of ITK and is fused to GST at the N terminus of ITK (ITK GST). To prepare the samples for mass spectral analysis, a 2 μM sample of the ITK GST fusion protein was incubated with a 5-fold molar excess of CPI 818 (10 μM). A control, untreated sample of ITK GST was prepared in parallel. […] After the incubation phase, samples were frozen and stored at −80° C. Mass spectral analysis was conducted in collaboration with the Stanford University mass spectrometry facility. The control, untreated ITK GST fusion protein, and the CPI 818 inhibited sample were subjected to chymotrypsin digestion and then analyzed by liquid chromatography coupled with tandem mass spectrometry (LC MS/MS). […] Ions electrosprayed from this column were detected using an Orbitrap Fusion mass spectrometer (Thermo Scientific, San Jose, CA) operated in a data dependent fashion using both ETD and HCD fragmentation to improve detection efficiency of modified peptides. […] Peptides were constrained to 12 ppm mass accuracy for precursor ions, and 0.4 Da mass accuracies for fragment ions detected in the ion trap. […]"}, "[4]": {"conditions": "PTCL-NOS patient, within 8-15 days"}}, "data": [{"smiles": "C=CC(=O)N1CCCN(C(=O)c2cc(Sc3cnc(NC(=O)C4CC4)s3)c(C)cc2OC)C[C@H]1C", "note": "[CPI-818]", "values": [{"measurement": "remaining activity at 1 µM", "setting": "ZAP-70", "value": 59, "unit": "%"}, {"measurement": "dose with best anti-tumor response", "setting": "[1]; 100, 200, 400, 600 mg BID evaluated", "value": "best response occurred at the dose of 200 mg BID"}, {"measurement": "duration of complete remission", "setting": "[1]; Example 2, 200 mg BID", "value": 25, "unit": "months"}, {"measurement": "response of patient with peripheral T-cell lymphoma NOS", "setting": "[1]; Example 2, 200 mg BID", "value": "complete remission"}, {"measurement": "response of patient with PTCL-NOS", "setting": "[1]; FIG. 23, cycle 17, after 1 year of treatment", "value": "complete response"}, {"measurement": "duration of complete response", "setting": "[1]; FIG. 23 patient", "value": 19, "unit": "months"}, {"measurement": "platelets (PLT) and lactate dehydrogenase (LDH)", "setting": "[1]; [4]", "value": "improvement"}, {"measurement": "subcutaneous (SQ) tumor", "setting": "[1]; [4]", "value": "dramatic reduction"}, {"measurement": "receptor occupancy at 5 mg/kg", "setting": "ITK [2]; 2 h", "value": 91, "unit": "%"}, {"measurement": "receptor occupancy at 5 mg/kg", "setting": "ITK [2]; 24 h", "value": 31, "unit": "%"}, {"measurement": "receptor occupancy at 400 mg", "setting": "ITK [3]; human, 400 mg BID and 600 mg BID, read-out: steady state trough ITK occupancy", "value": "~90", "unit": "%"}, {"measurement": "steady state peak ITK occupancy, mean", "setting": "ITK [3]; patients, 100-600 mg BID", "value": "at least 90%"}, {"measurement": "covalent modification of ITK peptides", "setting": "ITK Cys-442", "value": "covalently labeling Cys-442"}]}]}
